Assay results as given in ChEMBL document CHEMBL4406909, “Synthesis and evaluation of 1,3,5-triazine derivatives as sunscreens useful to prevent skin cancer” (Bioorg Med Chem Lett, 2019).

Experiments:
[1] = Photoprotection activity against UV radiation assessed as ratio of UVA to UVB
[2] = Antioxidant activity assessed as DPPH free radical scavenging activity at 400 uM incubated for 60 mins by spectrophotometric method relative to control; type: functional
[3] = Antioxidant activity assessed as DPPH free radical scavenging activity at 300 uM incubated for 60 mins by spectrophotometric method relative to control; type: functional
[4] = Antioxidant activity assessed as DPPH free radical scavenging activity at 200 uM incubated for 60 mins by spectrophotometric method relative to control; type: functional
[5] = Antioxidant activity assessed as DPPH free radical scavenging activity at 100 uM incubated for 60 mins by spectrophotometric method relative to control; type: functional
[6] = Thermal stability of compound in DMSO/methanol assessed as onset temperature by UV spectroscopic method; type: physicochemical
[7] = Thermal stability of compound in DMSO/methanol assessed as decomposition temperature by UV spectroscopic method; type: physicochemical
[8] = Thermal stability of compound in DMSO/methanol assessed as mass loss by UV spectroscopic method; type: physicochemical; settings: read-out: Drug degradation
[9] = Photoprotection activity against UV radiation

Row | SMILES | T [6] | T [7] | degraded [8] | Ratio [1] | Activity [2] | Activity [3] | Activity [4] | Activity [5] | SPF [9] | UVAPF [9]
1 | O=C(N/N=C/c1ccc(Oc2nc(Oc3ccc(/C=N/NC(=O)c4ccccc4)cc3)nc(Oc3ccc(/C=N/NC(=O)c4ccccc4)cc3)n2)cc1)c1ccccc1 | 275.89 °C | 294.21 °C | 36.7% | 0.6 | 2.4% | 2% | 1.3% | 0.9% | 9 | 5
2 | O=C(N/N=C/c1ccc(Oc2nc(Oc3ccc(/C=N/NC(=O)c4ccc(O)cc4O)cc3)nc(Oc3ccc(/C=N/NC(=O)c4ccc(O)cc4O)cc3)n2)cc1)c1ccc(O)cc1O | 218.88 °C | 309.94 °C | 39.8% | 0.5 | 75.6% | 75.1% | 74.2% | 55.3% | 3 | 2
3 | CCCCC(CC)COC(=O)c1ccc(Nc2nc(Nc3ccc(C(=O)OCC(CC)CCCC)cc3)nc(Nc3ccc(C(=O)OCC(CC)CCCC)cc3)n2)cc1 (stereo not given) | 119.99 °C | 232.29 °C | 68.7% | 0.8 | 3.5% | 2.6% | 1.6% | 0% | 3 | 3
4 | O=C(N/N=C/c1ccc(Oc2nc(Oc3ccc(/C=N/NC(=O)c4ccccc4O)cc3)nc(Oc3ccc(/C=N/NC(=O)c4ccccc4O)cc3)n2)cc1)c1ccccc1O | 264.89 °C | 269.71 °C | 19.6% | 0.7 | 0.8% | 0.3% | 0% | 0% | 17 | 13
5 | O=C(N/N=C/c1ccc(Oc2nc(Oc3ccc(/C=N/NC(=O)c4ccncc4)cc3)nc(Oc3ccc(/C=N/NC(=O)c4ccncc4)cc3)n2)cc1)c1ccncc1 | 235.6 °C | 236.25 °C | 36.8% | 0.4 | 6.1% | 2.4% | 0.5% | 0% | 5 | 3
6 | Oc1ccc(/C=C/c2cc(O)cc(O)c2)cc1 [RESVERATROL] | 263.46 °C | 266.95 °C | 32.9% | 0.7 | 62.2% | 56.2% | 55.9% | 46.8% | 2 | 2

Continued, in another order:

Row | T [6] | T [7] | degraded [8] | SMILES | Ratio [1] | Activity [2] | Activity [3] | Activity [4] | Activity [5] | SPF [9] | UVAPF [9]
7 | 267.35 °C | 272.15 °C | 11.6% | O=C(N/N=C/c1ccc(Oc2nc(Oc3ccc(/C=N/NC(=O)c4ccc(O)cc4)cc3)nc(Oc3ccc(/C=N/NC(=O)c4ccc(O)cc4)cc3)n2)cc1)c1ccc(O)cc1 | 0.5 | 8.2% | 6.7% | 5.6% | 4.4% | 7 | 4
8 | 324.37 °C | 326.22 °C | 41.2% | CC(C)(C)c1ccc(C(=O)N/N=C/c2ccc(Oc3nc(Oc4ccc(/C=N/NC(=O)c5ccc(C(C)(C)C)cc5)cc4)nc(Oc4ccc(/C=N/NC(=O)c5ccc(C(C)(C)C)cc5)cc4)n3)cc2)cc1 | 0.5 | 5.9% | 4.8% | 4.3% | 4% | 14 | 7
9 | 291.8 °C | 304.87 °C | 37.3% | O=C(N/N=C/c1ccc(Oc2nc(Oc3ccc(/C=N/NC(=O)c4ccc([N+](=O)[O-])cc4)cc3)nc(Oc3ccc(/C=N/NC(=O)c4ccc([N+](=O)[O-])cc4)cc3)n2)cc1)c1ccc([N+](=O)[O-])cc1 | 0.8 | 3.5% | 2.7% | 2.2% | 0.5% | 4 | 3
10 | 248.22 °C | 297.87 °C | 18.7% | O=C(N/N=C/c1ccc(Oc2nc(Oc3ccc(/C=N/NC(=O)c4cccc(O)c4)cc3)nc(Oc3ccc(/C=N/NC(=O)c4cccc(O)c4)cc3)n2)cc1)c1cccc(O)c1 | 0.4 | 6.3% | 5.8% | 4.4% | 4.2% | 4 | 2
